Assay results: publication PMC12948427 (The Journal of Clinical Investigation, 2025)
Where “and” joins values, the source holds several entries; their conditions need not be identical. Equal entries are not always repeated. Where two headings read alike, the source gives them in different places. Ends that are not written are not given here.

Experiments:
[1] = target: hHGS 1-390-6 × HIS protein (Homo sapiens, UniProt O14964); test: SPR binding of immobilized M peptides to HGS; conditions: without RTB; read-out: KD, binding affinity of peptide with HGS (SPR)
in vitro [2] = conditions: human, Calu-3 cells, cell viability, Figure S7G
in vitro [3] = conditions: mouse, 17Cl-1 cells, cell viability, Figure S7E
in vitro [4] = conditions: Vero E6 cells, cell viability, Figure S7F

hHGS 1-390-6 × HIS protein, sequence (O14964 1-390): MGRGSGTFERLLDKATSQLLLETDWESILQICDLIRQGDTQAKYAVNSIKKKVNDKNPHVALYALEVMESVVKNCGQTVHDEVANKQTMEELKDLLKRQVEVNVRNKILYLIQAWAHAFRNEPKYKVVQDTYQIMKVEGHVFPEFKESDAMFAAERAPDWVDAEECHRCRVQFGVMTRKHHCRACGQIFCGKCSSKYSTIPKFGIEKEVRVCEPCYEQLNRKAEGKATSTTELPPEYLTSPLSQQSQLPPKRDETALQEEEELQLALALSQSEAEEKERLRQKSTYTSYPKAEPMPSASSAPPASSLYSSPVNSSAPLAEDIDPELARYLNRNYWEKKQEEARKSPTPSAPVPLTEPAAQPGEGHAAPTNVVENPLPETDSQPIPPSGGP

For GRKKRRQRRRPPQESELVIGAVILR [M146], the “cytotoxicity (CCK-8)” value (Vero E6 cells; Vero E6, up to 10^4 nM) was “no significant cytotoxicity”, the “cell viability, Figure S7F” value (Vero E6 cells; peptide concentration 2000) was 100.769 and 98.8462 and the “cell viability, Figure S7F” value (Vero E6 cells; peptide concentration 10000) was 100.769 and 99.2308. For the same sequence, the “cell viability, Figure S7F” value (Vero E6 cells; peptide concentration 20000) was 100 and 96.5385, the “cell viability, Figure S7F” value (Vero E6 cells; peptide concentration 40000) was 96.9231 and 96.1538 and the “cell viability, Figure S7F” value (Vero E6 cells; peptide concentration 80000) was 86.9231. The “cell viability, Figure S7F” value (Vero E6 cells; peptide concentration 120000) was 92.3077, the “cell viability, Figure S7F” value (Vero E6 cells; peptide concentration 160000) was 75.7692 and 76.9231 and the “cell viability, Figure S7F” value (Vero E6 cells; peptide concentration 200000) was 78.4615 and 78.8462. For the same sequence, the “cell viability, Figure S7F” value (Vero E6 cells; peptide concentration 400000) was 21.7308 and 21.1538, the “cell viability, Figure S7F” value (Vero E6 cells; peptide concentration 800000) was 13.7308 and 14.2308 and the “cell viability, Figure S7F” value (Vero E6 cells; peptide concentration 1200000) was 13.4615 and 14.1154. For the same sequence, the “cell viability, Figure S7F” value (Vero E6 cells; peptide concentration 1600000) was 13.0385 and 11.8077, the Kd [1] was 5.73 nM and the “cytotoxicity (CCK-8)” value (Calu-3 cells; Calu-3, up to 10^4 nM) was “no significant cytotoxicity”. The “cell viability, Figure S7G” value (Calu-3 cells; peptide concentration 2000) was 95.941 and 95.203, the “cell viability, Figure S7G” value (Calu-3 cells; peptide concentration 10000) was 97.048 and 96.679 and the “cell viability, Figure S7G” value (Calu-3 cells; peptide concentration 20000) was 96.679. For the same sequence, the “cell viability, Figure S7G” value (Calu-3 cells; peptide concentration 40000) was 96.31 and 87.4539, the “cell viability, Figure S7G” value (Calu-3 cells; peptide concentration 80000) was 94.0959 and 97.048 and the “cell viability, Figure S7G” value (Calu-3 cells; peptide concentration 120000) was 77.1218 and 97.786 and 96.31. For the same sequence, the “cell viability, Figure S7G” value (Calu-3 cells; peptide concentration 160000) was 66.0517 and 74.9077, the “cell viability, Figure S7G” value (Calu-3 cells; peptide concentration 200000) was 81.9188 and 68.2657 and the “cell viability, Figure S7G” value (Calu-3 cells; peptide concentration 400000) was 25.2399 and 16.7897. For the same sequence, the “cell viability, Figure S7G” value (Calu-3 cells; peptide concentration 800000) was 14.4649, the “cell viability, Figure S7G” value (Calu-3 cells; peptide concentration 1200000) was 11.5867 and 10.5535 and the “cell viability, Figure S7G” value (Calu-3 cells; peptide concentration 1600000) was 13.7638 and 14.6125. The “cytotoxicity (CCK-8)” value (17Cl-1 cells; 17Cl-1, up to 10^4 nM) was “no significant cytotoxicity”, the “cell viability, Figure S7E” value (17Cl-1 cells; peptide concentration 1000) was 99.2599 and 92.2943 and the “cell viability, Figure S7E” value (17Cl-1 cells; peptide concentration 4000) was 104.049 and 106.226. The “cell viability, Figure S7E” value (17Cl-1 cells; peptide concentration 8000) was 108.838, the “cell viability, Figure S7E” value (17Cl-1 cells; peptide concentration 10000) was 97.5185 and 100.566 and the “cell viability, Figure S7E” value (17Cl-1 cells; peptide concentration 20000) was 112.32 and 104.049. For the same sequence, the “cell viability, Figure S7E” value (17Cl-1 cells; peptide concentration 40000) was 96.2125 and 97.0832, the “cell viability, Figure S7E” value (17Cl-1 cells; peptide concentration 60000) was 82.2812 and 103.613 and 98.3892 and the “cell viability, Figure S7E” value (17Cl-1 cells; peptide concentration 80000) was 90.5529. The “cell viability, Figure S7E” value (17Cl-1 cells; peptide concentration 100000) was 97.0832 and 87.5054, the “cell viability, Figure S7E” value (17Cl-1 cells; peptide concentration 200000) was 89.6822 and 71.8328 and the viability at 24 h (in vitro [2]; peptide concentration 2000) was 83.8%. It also gave a viability at 24 h (in vitro [2]; peptide concentration 10000) of 95.2%, a viability at 24 h (in vitro [2]; peptide concentration 20000) of 94.8% and a viability at 24 h (in vitro [2]; peptide concentration 40000) of 93.7%. For the same sequence, the viability at 24 h (in vitro [2]; peptide concentration 80000) was 92.6%, the viability at 24 h (in vitro [2]; peptide concentration 160000) was 85.6% and the viability at 24 h (in vitro [2]; peptide concentration 200000) was 83%. It also gave a viability at 24 h (in vitro [2]; peptide concentration 400000) of 24.4%, a viability at 24 h (in vitro [2]; peptide concentration 800000) of 13% and a viability at 24 h (in vitro [2]; peptide concentration 1200000) of 11%. It also gave a viability at 24 h (in vitro [2]; peptide concentration 1600000) of 11.7%, a viability at 24 h (in vitro [3]; peptide concentration 1000) of 99.7% and a viability at 24 h (in vitro [3]; peptide concentration 4000) of 103%. It also gave a viability at 24 h (in vitro [3]; peptide concentration 8000) of 95.8%, a viability at 24 h (in vitro [3]; peptide concentration 10000) of 107% and a viability at 24 h (in vitro [3]; peptide concentration 20000) of 92.7%. For the same sequence, the viability at 24 h (in vitro [3]; peptide concentration 40000) was 91%, the viability at 24 h (in vitro [3]; peptide concentration 80000) was 71.4% and the viability at 24 h (in vitro [3]; peptide concentration 100000) was 84.5%. The viability at 24 h (in vitro [3]; peptide concentration 200000) was 84%, the viability at 24 h (in vitro [4]; peptide concentration 2000) was 98.5% and the viability at 24 h (in vitro [4]; peptide concentration 10000) was 97.7%. For the same sequence, the viability at 24 h (in vitro [4]; peptide concentration 20000) was 94.2%, the viability at 24 h (in vitro [4]; peptide concentration 40000) was 93.1% and the viability at 24 h (in vitro [4]; peptide concentration 80000) was 91.9%. It also gave a viability at 24 h (in vitro [4]; peptide concentration 120000) of 88.8%, a viability at 24 h (in vitro [4]; peptide concentration 160000) of 80.8% and a viability at 24 h (in vitro [4]; peptide concentration 200000) of 70.8%. It also gave a viability at 24 h (in vitro [4]; peptide concentration 400000) of 20%, a viability at 24 h (in vitro [4]; peptide concentration 800000) of 12% and a viability at 24 h (in vitro [4]; peptide concentration 1200000) of 11.4%. It also gave a viability at 24 h (in vitro [4]; peptide concentration 1600000) of 14.5%.
